# PubChem BioAssay AID1963868 (Molecular Pharmacology Branch, DTP, NCI, 2024)
# Tested on: KRAS PDC tumor spheroids (HUVEC+MSC), viability
# Assay: Anticancer human tumor 254851-301-R-J1-PDC patient-derived colon carcinoma cell line growth inhibition [KRAS2]
# Conditions: for viability, T/C: stronger effect = lower value
# Excerpt: Multicellular complex tumor spheroid response to RAS pathway inhibitors in combination with a targeted agents in patient-derived cell lines with oncogenic KRAS variants from multiple cancer types
# A high-throughput screen of multi-cell type tumor spheroids was designed to identify active combinations of targeted small molecules and KRAS pathway inhibitors. Complex spheroids include a stromal component modeled by human endothelial cells (HUVEC) and fibroblasts modeled by human mesenchymal stem cells (MSCs). The concentration ranges selected for each drug and investigational agent were based upon clinically achievable concentrations if the clinical Cmax of the agent was known.
# Compounds. The drugs and investigational agents: BI-3406 (NSC825286), BAY-293 (NSC824723), batoprotafib (TNO155; NSC825523), sotorasib (AMG 510; NSC818433), MRTX1257 (NSC819558), elimusertib (BAY 1895344; NSC800525), molibresib (GSK525762; NSC774829), temuterkib (LY3214996; NSC803410), venetoclax (NSC766270), alisertib (NSC759677), olaparib (NSC753686), talazoparib (NSC767125), erdafitinib (NSC781556), ipatasertib (NSC767898), cabozantinib (NSC761068), nintedanib (NSC756659), abemaciclib (NSC768073), docetaxel (NSC628503), trametinib (NSC758246), and sapanisertib (NSC764658) were obtained from the National Cancer Institute (NCI) Developmental Therapeutics Program Chemical Repository. The FDA-approved anticancer drug set is available from the Developmental Therapeutics Program. […] The stock solutions were prepared in dimethyl sulfoxide (DMSO, Sigma-Aldrich, St. Louis, MO, cat. D2650) at 800-fold the tested concentration and stored at -70 degrees C prior to their use. All drugs and investigational agents were tested over a range starting from a high concentration at or near the clinical Cmax and decreasing in half-log increments. If the clinical Cmax for an agent had not been determined, the highest concentration tested was 10 microM.
# Cell Culture. All cells were maintained in an incubator at 37 degrees C and 5% CO2 with 95% humidity. The PDC lines were cultured according to standard operating procedures established by the NCI PDMR (https://pdmr.cancer.gov/sops/default.htm). Briefly, all PDCs were thawed and cultured in Matrigel-coated flasks prepared with a working solution of 1X Ham's F-12 nutrient mix, without supplementation (Invitrogen, Waltham, MA, cat. 11765054), 100 U/mL penicillin-streptomycin (Invitrogen, cat. 15140122), and 2.5% Matrigel (Corning Inc., Corning, NY, cat. 354248) for the first three passages. All PDCs were cultured in complete DMEM/F-12 media containing advanced DMEM/F-12 (Invitrogen, cat. 12634028), 4.9% defined fetal bovine serum, heat inactivated (HyClone Laboratories Inc., Logan, UT, cat. SH30070.03HI), 389 ng/mL hydrocortisone (Sigma-Aldrich, cat. H4001), 9.7 ng/mL human EGF recombinant protein (Invitrogen, cat. PHG0313), 23.4 microg/mL adenine (Sigma-Aldrich, cat. A2786), 97.3 U/mL penicillin-streptomycin (Invitrogen, cat. 15140122), 1.9 mM L-glutamine (Invitrogen, cat. 25030081), and 9.7 microM Y-27632 dihydrochloride (Tocris Bioscience, Bristol, United Kingdom, cat. 1254). The PDCs were cultured in complete DMEM/F12 media without 9.7 microM Y-27632 dihydrochloride for at least two passages prior to the screen. The established cell line HOP-62 was cultured in RPMI 1640 medium, HEPES (Invitrogen, cat. 22400105) with 10% defined fetal bovine serum (HyClone Laboratories Inc., cat. SH30070.03) and 2 mM L-glutamine (Invitrogen, cat. 25030081). The pooled donor HUVEC were cultured in endothelial cell growth medium 2 (PromoCell, Heidelberg, Germany, cat. C-22011) and the hMSC were cultured in mesenchymal stem cell growth medium 2 (PromoCell, cat. C-28009). For all experiments, HUVEC and hMSC were used at passages </=5, while the malignant cell lines were used at passages </=15. […]
# [1] = compound alone, run of 07/12/2021
# [2] = compound alone, run of 07/19/2021
# [3] = compound alone, run of 07/26/2021
# [4] = curve of first compound, second compound 0.1 µM
# [5] = curve of first compound, second compound 0.316 µM
# [6] = curve of first compound, second compound 1 µM
# [7] = curve of first compound, second compound 3.16 µM
# [8] = curve of first compound, second compound 10 µM
# [9] = second compound 0.1 µM, first compound 0.01 µM
# [10] = second compound 0.1 µM, first compound 0.0316 µM
# [11] = second compound 0.1 µM, first compound 0.1 µM
# [12] = second compound 0.1 µM, first compound 0.316 µM
# [13] = second compound 0.1 µM, first compound 1 µM
# [14] = second compound 0.1 µM, first compound 3.16 µM
# [15] = second compound 0.316 µM, first compound 0.01 µM
# [16] = second compound 0.316 µM, first compound 0.0316 µM
# [17] = second compound 0.316 µM, first compound 0.1 µM
# [18] = second compound 0.316 µM, first compound 0.316 µM
# [19] = second compound 0.316 µM, first compound 1 µM
# [20] = second compound 0.316 µM, first compound 3.16 µM
# [21] = second compound 1 µM, first compound 0.01 µM
# [22] = second compound 1 µM, first compound 0.0316 µM
# [23] = second compound 1 µM, first compound 0.1 µM
# [24] = second compound 1 µM, first compound 0.316 µM
# [25] = second compound 1 µM, first compound 1 µM
# [26] = second compound 1 µM, first compound 3.16 µM
# [27] = second compound 3.16 µM, first compound 0.01 µM
# [28] = second compound 3.16 µM, first compound 0.0316 µM
# [29] = second compound 3.16 µM, first compound 0.1 µM
# [30] = second compound 3.16 µM, first compound 0.316 µM
# [31] = second compound 3.16 µM, first compound 1 µM
# [32] = second compound 3.16 µM, first compound 3.16 µM
# [33] = second compound 10 µM, first compound 0.01 µM
# [34] = second compound 10 µM, first compound 0.0316 µM
# [35] = second compound 10 µM, first compound 0.1 µM
# [36] = second compound 10 µM, first compound 0.316 µM
# [37] = second compound 10 µM, first compound 1 µM
# [38] = second compound 10 µM, first compound 3.16 µM
# 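Further: spheroids exposed to compounds for seven days before readout.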
# 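Wherever viability, T/C is given: 100% = DMSO vehicle control luminescence of the spheroids.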
structure (smiles),measurement,setting,value
CNCc1ccccc1-c1csc(C(C)Nc2nc(C)nc3cc(OC)c(OC)cc23)c1 (stereo not given),"viability, T/C",compound 0.1 µM,95.8% [middle of 17 runs]
same,"viability, T/C",compound 0.316 µM,99.9% [middle of 16 runs]
same,"viability, T/C",compound 10 µM,0.17% [middle of 15 runs]
same,IC50,[1],4.73 µM [middle of 6 runs]
same,IC50,[2],4.58 µM [middle of 5 runs]
same,IC50,[3],2.42 µM [middle of 6 runs]
COc1cc2nc(C)nc(NC(C)c3cc(N)cc(C(F)(F)F)c3)c2cc1OC1CCOC1 (stereo not given),"viability, T/C",compound 1 µM,92.5% [middle of 17 runs]
same,IC50,[1],> 10000 nM
same,IC50,[2],> 10000 nM
same,IC50,[3],> 10000 nM
CC(=O)OC12COC1CC(O)C1(C)C(=O)C(O)C3=C(C)C(OC(=O)C(O)C(NC(=O)OC(C)(C)C)c4ccccc4)CC(O)(C(OC(=O)c4ccccc4)C21)C3(C)C (stereo not given) + C=CC(=O)N1CCN(c2nc(=O)n(-c3c(C)ccnc3C(C)C)c3nc(-c4c(O)cccc4F)c(F)cc23)C(C)C1,IC50,[4],259 nM
same,IC50,[5],243 nM
same,IC50,[6],244 nM
same,IC50,[7],253 nM
same,IC50,[8],208 nM
same,"viability, T/C",[9],104%
same,"viability, T/C",[10],94.6%
same,"viability, T/C",[11],74.4%
same,"viability, T/C",[12],44.6%
same,"viability, T/C",[13],30.5%
same,"viability, T/C",[14],26.7%
same,"viability, T/C",[15],90.9%
same,"viability, T/C",[16],98%
same,"viability, T/C",[17],70.8%
same,"viability, T/C",[18],44.9%
same,"viability, T/C",[19],29.8%
same,"viability, T/C",[20],27.4%
same,"viability, T/C",[21],88.1%
same,"viability, T/C",[22],84.5%
same,"viability, T/C",[23],68.2%
same,"viability, T/C",[24],45%
same,"viability, T/C",[25],30%
same,"viability, T/C",[26],26.5%
same,"viability, T/C",[27],105%
same,"viability, T/C",[28],93.5%
same,"viability, T/C",[29],70.2%
same,"viability, T/C",[30],45.7%
same,"viability, T/C",[31],30.6%
same,"viability, T/C",[32],27.5%
same,"viability, T/C",[33],93.5%
same,"viability, T/C",[34],87.1%
same,"viability, T/C",[35],70.9%
same,"viability, T/C",[36],38.1%
same,"viability, T/C",[37],26.1%
same,"viability, T/C",[38],24.1%
CN(C)C/C=C/C(=O)Nc1cc2c(Nc3ccc(F)c(Cl)c3)ncnc2cc1O[C@H]1CCOC1 + C=CC(=O)N1CCN(c2nc(=O)n(-c3c(C)ccnc3C(C)C)c3nc(-c4c(O)cccc4F)c(F)cc23)C(C)C1,IC50,[4],> 100 nM
same,IC50,[5],> 100 nM
same,IC50,[6],> 100 nM
same,IC50,[7],> 100 nM
same,IC50,[8],> 100 nM
same,"viability, T/C","second compound 0.1 µM, first compound 0.000316 µM",110%
same,"viability, T/C","second compound 0.1 µM, first compound 0.001 µM",103%
same,"viability, T/C","second compound 0.1 µM, first compound 0.00316 µM",99.5%
same,"viability, T/C",[9],93.8%
same,"viability, T/C",[10],97.2%
same,"viability, T/C",[11],93%
same,"viability, T/C","second compound 0.316 µM, first compound 0.000316 µM",104%
same,"viability, T/C","second compound 0.316 µM, first compound 0.001 µM",102%
same,"viability, T/C","second compound 0.316 µM, first compound 0.00316 µM",96.5%
same,"viability, T/C",[15],89.6%
same,"viability, T/C",[16],93.4%
same,"viability, T/C",[17],75.2%
same,"viability, T/C","second compound 1 µM, first compound 0.000316 µM",99.5%
same,"viability, T/C","second compound 1 µM, first compound 0.001 µM",108%
same,"viability, T/C","second compound 1 µM, first compound 0.00316 µM",86.1%
same,"viability, T/C",[21],87.2%
same,"viability, T/C",[22],83.6%
same,"viability, T/C",[23],73.5%
same,"viability, T/C","second compound 3.16 µM, first compound 0.000316 µM",101%
same,"viability, T/C","second compound 3.16 µM, first compound 0.001 µM",98.7%
same,"viability, T/C","second compound 3.16 µM, first compound 0.00316 µM",87.1%
same,"viability, T/C",[27],93.8%
same,"viability, T/C",[28],100%
same,"viability, T/C",[29],82.5%
same,"viability, T/C","second compound 10 µM, first compound 0.000316 µM",109%
same,"viability, T/C","second compound 10 µM, first compound 0.001 µM",99.3%
same,"viability, T/C","second compound 10 µM, first compound 0.00316 µM",91.9%
same,"viability, T/C",[33],94.6%
same,"viability, T/C",[34],95.6%
same,"viability, T/C",[35],74.4%
O=C(c1cc(Cc2n[nH]c(=O)c3ccccc23)ccc1F)N1CCN(C(=O)C2CC2)CC1 + C=CC(=O)N1CCN(c2nc(=O)n(-c3c(C)ccnc3C(C)C)c3nc(-c4c(O)cccc4F)c(F)cc23)C(C)C1,IC50,[4],> 10000 nM
same,IC50,[5],> 10000 nM
same,IC50,[6],> 10000 nM
same,IC50,[7],> 10000 nM
same,IC50,[8],> 10000 nM
same,"viability, T/C",[10],104%
same,"viability, T/C",[11],100%
same,"viability, T/C",[12],101%
same,"viability, T/C",[13],103%
same,"viability, T/C",[14],95.6%
same,"viability, T/C","second compound 0.1 µM, first compound 10 µM",89.5%
same,"viability, T/C",[16],116%
same,"viability, T/C",[17],104%
same,"viability, T/C",[18],96%
same,"viability, T/C",[19],97%
same,"viability, T/C",[20],101%
same,"viability, T/C","second compound 0.316 µM, first compound 10 µM",97.2%
same,"viability, T/C",[22],111%
same,"viability, T/C",[23],101%
same,"viability, T/C",[24],111%
same,"viability, T/C",[25],104%
same,"viability, T/C",[26],106%
same,"viability, T/C","second compound 1 µM, first compound 10 µM",92%
same,"viability, T/C",[28],106%
same,"viability, T/C",[29],102%
same,"viability, T/C",[30],105%
same,"viability, T/C",[31],100%
same,"viability, T/C",[32],102%
same,"viability, T/C","second compound 3.16 µM, first compound 10 µM",95.7%
same,"viability, T/C",[34],107%
same,"viability, T/C",[35],114%
same,"viability, T/C",[36],105%
same,"viability, T/C",[37],110%
same,"viability, T/C",[38],101%
same,"viability, T/C","second compound 10 µM, first compound 10 µM",107%
